Data on nine compounds can be found in US11524962B2, “Substituted pyrrolo[2,3-d]pyrimidines as inhibitors of protein arginine methyl transferase 5 (PRMT5)” (PRELUDE THERAPEUTICS, INCORPORATED, priority 2017, dated 2022).

Where two headings read alike, the source gives them in different places.

The target in one data set is PRMT5/MEP50 complex (Homo sapiens (Human), UniProt O14744). The experiment in a line: Flash plate assay. Type of data set: biochemical. In a few lines: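 Inhibition of the human PRMT5/MEP50 complex was measured radiometrically. Compounds in 3-fold DMSO dilutions were preincubated 20 minutes at 37° C with 2.5 nM enzyme and 300 nM AcH4-23 histone H4 peptide in 30 μl assay buffer. S-[3H-methyl]-adenosyl-L-methionine (1 μM) was then added for 30 minutes at 37° C. Reactions were stopped with 8M Guanidine HCl, captured on streptavidin SPA beads and scintillation counted. IC50 values came from 4-parameter fits.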
Chain of PRMT5/MEP50 complex (O14744 whole entry): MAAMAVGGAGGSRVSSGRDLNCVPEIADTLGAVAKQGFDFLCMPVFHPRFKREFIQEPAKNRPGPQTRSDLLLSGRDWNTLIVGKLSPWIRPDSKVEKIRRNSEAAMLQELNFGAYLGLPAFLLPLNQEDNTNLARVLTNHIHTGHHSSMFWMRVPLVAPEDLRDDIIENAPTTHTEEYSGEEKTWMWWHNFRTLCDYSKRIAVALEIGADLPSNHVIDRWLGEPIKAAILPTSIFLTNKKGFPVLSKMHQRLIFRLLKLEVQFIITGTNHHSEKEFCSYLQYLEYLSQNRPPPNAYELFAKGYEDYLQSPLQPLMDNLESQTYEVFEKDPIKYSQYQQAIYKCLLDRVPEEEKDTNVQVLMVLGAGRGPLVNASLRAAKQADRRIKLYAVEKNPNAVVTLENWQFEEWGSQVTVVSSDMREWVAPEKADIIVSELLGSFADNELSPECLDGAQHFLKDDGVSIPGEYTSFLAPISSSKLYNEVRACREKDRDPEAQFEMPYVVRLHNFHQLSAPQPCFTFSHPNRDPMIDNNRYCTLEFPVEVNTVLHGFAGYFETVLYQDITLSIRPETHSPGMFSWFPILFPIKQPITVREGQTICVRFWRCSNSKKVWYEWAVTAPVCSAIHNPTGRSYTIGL
Chain of PRMT5/MEP50 complex (Q9BQA1 whole entry partner): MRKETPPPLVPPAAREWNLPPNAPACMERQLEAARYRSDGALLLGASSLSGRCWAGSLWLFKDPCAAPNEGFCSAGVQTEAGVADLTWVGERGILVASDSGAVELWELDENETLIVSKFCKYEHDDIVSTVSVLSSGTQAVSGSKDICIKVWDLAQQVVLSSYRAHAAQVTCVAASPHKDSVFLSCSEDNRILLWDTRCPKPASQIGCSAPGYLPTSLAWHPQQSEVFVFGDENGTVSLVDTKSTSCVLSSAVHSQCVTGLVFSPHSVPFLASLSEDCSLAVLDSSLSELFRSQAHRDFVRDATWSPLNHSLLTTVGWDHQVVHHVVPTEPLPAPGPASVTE

Data set [1] has as its system Symmetric Di-Methyl Arginine (sDMA) marks in Granta-519 cells. In words: sDMA Western blot / In Cell Western in Granta-519 cells. Type of data set: cell-based. The settings on record: Homo sapiens. The procedure: Compound titration and cell culture: Compounds were dissolved in DMSO to make 10 mM stock and 3-fold series dilutions were further conducted to make working stocks top at 1 mM. Granta-519 cells were maintained in PRMI 1640 (Corning Cellgro, Catalog #: 10-040-CV) supplemented with 10% v/v FBS (GE Healthcare, Catalog #: SH30910.03) and U-87 MG cells were maintained in DMEM (Corning Cellgro, Catalog #: 10-013-CV) with 10% FBS and 2 mM Glutamin (Corning Cellgro, Catalog #25005CV).
To determine enzyme inhibition IC50 values in Granta-519 and U-87 MG cells using Western Blot analysis. One day before experiment, Granta-519 cells were passaged to a density of 0.5×10^6 cells/ml. U-87 MG cells were trypsinized and 4×10^5 cells were seeded into 6-well plates and allow to grow overnight. The next day, Granta-519 cells were spun down at 1,500 rpm for 4 min, resuspend in fresh medium at 0.5×10^6 cells/ml and 3 mL of culture (1.5×10^6 cells) were seeded into 6 well plate. Eight-point, 3-fold serial dilutions of compound working stocks were added to cells (3 ul, 1:1,000 dilution, DMSO concentration was 0.1%; final top concentration at 1 uM) and incubated for 3 days. Cells incubated with DMSO was used as a vehicle control.
Cells were harvested 3 days later, resuspended in 15 uL PBS, lysed in 4% SDS, and homogenized by passing through homogenizer column (Omega Biotek, Catalog #: HCR003). Total protein concentrations were determined by BCA assay (ThermoFisher Scientific, Catalog #: 23225). Lysates were mixed with 5× Laemmli buffer and boiled for 5 min. Forty ug of total protein was separated on SDS-PAGE gels (Bio-Rad, catalog #: 4568083, 4568043), transferred to PVDF membrane, blocked with 5% dry milk (Bio-Rad, Catalog #: 1706404) in TBS with 0.1% v/v Tween 20 (TBST) for 1 hour at room temperature (RT), and incubated with primary antibodies (sDMA: Cell signaling, Catalog #: 13222, 1:3,000; β-Actin: sigma, Catalog #: 1:5,000) in 5% dry milk in TBST at 4° C. overnight. The next day, membranes were washed with TBST, 5×5 min, and incubated with HRP conjugated seconded antibody (GE Healthcare; Catalog #: NA934-1ML, NA931-1ML; 1:5,000) for 2 hours at RT, followed by 5×5 min washes with TBST, and incubation with ECL substrates (Bio-Rad, Catalog #: 1705061, 1705062). Chemiluminescent signal was captured with Fluochem HD2 imager (Proteinsimple). SmD3me2s bands were quantified by ImageJ. Signals were normalized to β-Actin and DMSO control. IC50 values were calculated using Graphpad Prism ([Inhibitor]vs. normalized response−Variable slope).
sDMA In Cell Western procedure (ICW): Granta-519 cells were passaged to a density of 0.5×10^6 cells/ml one day before experiments and allowed to grow overnight. The next day (day 0), cells were spun down at 1,500 rpm for 4 min, resuspended in fresh medium to 0.2×10^6 cells/ml and 100 uL of cells were added to 384-well plates using a Multidrop Combi Dispenser (ThermoFisher). A series of 9-point, 3-fold serial dilutions of compounds were prepared and dispensed into wells from a 1 mM stock solution using a TECAN digital dispenser (D300e) and the DMSO % concentration was normalized in each well to 0.1%. DMSO and 3 uM of reference compounds were used as negative (minimum inhibition) and positive (maximum inhibition) controls, respectively. After 3 days of incubation, cells were first resuspended and then 80 ul of cells were transferred to a Poly-D-lysine 384-well plate (Corning, Catalog #354663), followed by 30 minutes incubation at room temperature (RT) and 5 additional hours of incubation at 37° C. […]

Data set [2] can be described thus: In vivo pharmacokinetic study in rat. The following applies: for clearance / half-life / Vd / bioavailability: Sprague-Dawley (SD), blood; for clearance / half-life / Vd: iv; for Vd: read-out: Vss; for bioavailability: po. The protocol: In a rat (SD, male, non-fasted) non-crossover cassette (n=2) PK study, Example 1 was dosed at 0.5 mg/kg (DMA: […]=5:95, solution) with another compound via i.v. administration (N=3) and 2 mg/kg (0.5% o Na CMC+0.50% Tween80, suspension) with another compound via oral gauge (p.o.) (N=3).
In a rat (SD, male and female, non-fasted) non-crossover cassette (n=4) PK study, Example 6 was dosed at 0.2 mg/kg (DMA: […]=5:95, solution) with other 3 compounds via i.v. administration (N=2 per sex) and 2 mg/kg (0.5% o Na CMC+0.50% Tween80, suspension) with other 3 compounds via oral gauge (p.o.) (N=2 per sex).
In a rat (SD, male and female, non-fasted) non-crossover PK study, Example 11 was dosed at 1 mg/kg (DMA: 20% HPBCD=5:95, solution) via i.v. administration (N=3 per sex) and 3 mg/kg (0.5% Na CMC+0.5% Tween80, suspension) via oral gauge (p.o.) (N=3 per sex).

Where [3] appears, read: initial testing, read-out: IC50 (flash plate).
Where [4] appears, read: 72 h, Granta-519, 3 days, read-out: sDMA_Granta IC50.
Setting [5] is: rat SD male, i.v. 0.5 mg/kg, cassette.
Where [6] appears, read: rat SD female, i.v. 0.2 mg/kg, cassette.
Setting [7] is: rat SD male, i.v. 0.2 mg/kg, cassette.
Setting [8] is: rat SD female, p.o. 2 mg/kg, cassette (n=4).
Where [9] appears, read: rat SD male, p.o. 2 mg/kg, cassette (n=4).

For the compound `C[C@@](O)(c1ccc2c(c1)CC2)[C@H]1O[C@@H](n2ccc3c(N)ncnc32)[C@H](O)[C@@H]1O` [Example 1, (2R,3R,4S,5S)-2-(4-amino-7H-pyrrolo[2,3-d]pyrimidin-7-yl)-5-((R)-1-(bicyclo[4.2.0]octa-1(6),2,4-trien-3-yl)-1-hydroxyethyl)tetrahydrofuran-3,4-diol], the IC50 amounted to 0.0063 µM at PRMT5/MEP50 complex (setting [3]); 0.0062 µM on PRMT5/MEP50 complex (read-out: Flash Plate IC50); 0.022 µM in data set [1] (setting [4]); 0.009 µM in data set [1] (Granta-519, initial testing, read-out: sDMS (Granta) IC50). In data set [2] (setting [5]), the clearance turned out to be 56.2 mL/min/kg. Also, in data set [2] (setting [5]), the half-life was 0.35 h. In addition, in data set [2] (setting [5]), the Vd stood at 1.36 L/kg. Besides, the “dose normalized AUC” value in data set [2] (rat SD male, p.o. 2 mg/kg, cassette) was 145 ng·kg·h/mL/mg.
`Nc1ncnc2c1ccn2[C@@H]1O[C@H]([C@H](O)c2ccc3c(c2)CC3)[C@@H](O)[C@H]1O` [Example 2, (2R,3R,4S,5R)-2-(4-amino-7H-pyrrolo[2,3-d]pyrimidin-7-yl)-5-((R)-bicyclo[4.2.0]octa-1(6),2,4-trien-3-yl(hydroxy)methyl)tetrahydrofuran-3,4-diol]: the IC50 on PRMT5/MEP50 complex (setting [3]) turned out to be 0.0042 µM; on PRMT5/MEP50 complex (read-out: Flash Plate IC50), 0.0041 µM; in data set [1] (setting [4]) it was 0.02 µM.
Turning to `Nc1ncnc2c1c(F)cn2[C@@H]1O[C@H]([C@H](O)c2ccc3c(c2)CC3)[C@@H](O)[C@H]1O` [Example 6, (2R,3R,4S,5R)-2-(4-amino-5-fluoro-7H-pyrrolo[2,3-d]pyrimidin-7-yl)-5-((R)-bicyclo[4.2.0]octa-1(6),2,4-trien-3-yl(hydroxy)methyl)tetrahydrofuran-3,4-diol], the IC50 on PRMT5/MEP50 complex (read-out: Flash Plate IC50) worked out at 0.0028 µM; in data set [1] (setting [4]) it was 0.038 µM. Besides, the clearance was determined as 21.6 mL/min/kg in data set [2] (setting [6]) and 59.2 mL/min/kg in data set [2] (setting [7]). For the same compound, the values for the half-life in data set [2] (setting [6]) and in data set [2] (setting [7]) were 1.69 h and 0.46 h, respectively. In addition, the values for the Vd in data set [2] (setting [6]) and in data set [2] (setting [7]) were 1.91 L/kg and 1.81 L/kg, respectively. The bioavailability in data set [2] (setting [8]) was > 100%; in data set [2] (setting [9]), 51.1%. The “dose normalized AUC” value came out at 1143 ng·kg·h/mL/mg in data set [2] (setting [8]) and 144 ng·kg·h/mL/mg in data set [2] (setting [9]).
Take `Cc1ncnc2c1ccn2[C@@H]1O[C@H]([C@H](O)c2ccc3c(c2)CC3)[C@@H](O)[C@H]1O` [Example 11, (2R,3S,4R,5R)-2-((R)-bicyclo[4.2.0]octa-1(6),2,4-trien-3-yl(hydroxy)methyl)-5-(4-methyl-7H-pyrrolo[2,3-d]pyrimidin-7-yl)tetrahydrofuran-3,4-diol]: the results for the half-inhibitory concentration (IC50) (on PRMT5/MEP50 complex (setting [3]); on PRMT5/MEP50 complex (read-out: Flash Plate IC50); in data set [1] (setting [4])) were 0.0059 µM, 0.0068 µM and 0.033 µM, respectively. The clearance was 37.2 mL/min/kg in data set [2] (rat SD female, i.v. 1 mg/kg) and 77.5 mL/min/kg in data set [2] (rat SD male, i.v. 1 mg/kg). For the same compound, the half-life in data set [2] (rat SD female, i.v. 1 mg/kg) is 1.84 h; in data set [2] (rat SD male, i.v. 1 mg/kg), 1.06 h. For the same compound, the Vd in data set [2] (rat SD female, i.v. 1 mg/kg) amounted to 2.71 L/kg; in data set [2] (rat SD male, i.v. 1 mg/kg) it was 2.85 L/kg. Further, the bioavailability in data set [2] (rat SD female, p.o. 3 mg/kg) is 97%; in data set [2] (rat SD male, p.o. 3 mg/kg), 13%. In addition, the “dose normalized AUC” value was 434 ng·kg·h/mL/mg in data set [2] (rat SD female, p.o. 3 mg/kg) and 33 ng·kg·h/mL/mg in data set [2] (rat SD male, p.o. 3 mg/kg).
`Nc1ncnc2c1c(Br)cn2[C@@H]1O[C@H]([C@H](O)c2ccc3c(c2)CC3)[C@@H](O)[C@H]1O` [Example 36, (2R,3R,4S,5R)-2-(4-amino-5-bromo-7H-pyrrolo[2,3-d]pyrimidin-7-yl)-5-((R)-bicyclo[4.2.0]octa-1,3,5-trien-3-yl(hydroxy)methyl)tetrahydrofuran-3,4-diol]: the results for the concentration for half-maximal inhibition (IC50) (on PRMT5/MEP50 complex (read-out: Flash Plate IC50); in data set [1] (setting [4])) were 0.02 µM and 3.78 µM, respectively.
Consider `Cc1ncnc2c1ccn2[C@@H]1O[C@H]([C@H](O)c2nc3c(s2)CCC3)[C@@H](O)[C@H]1O` [Example 52, (2S,3S,4R,5R)-2-((S)-(5,6-dihydro-4H-cyclopenta[d]thiazol-2-yl)(hydroxy)methyl)-5-(4-methyl-7H-pyrrolo[2,3-d]pyrimidin-7-yl)tetrahydrofuran-3,4-diol], for which the IC50 at PRMT5/MEP50 complex (read-out: Flash Plate IC50) was determined as 0.0093 µM; in data set [1] (setting [4]), 1.7 µM.
Turning to `OCCc1ncnc2c1ccn2[C@@H]1O[C@H]([C@H](O)c2ccc3c(c2)CC3)[C@@H](O)[C@H]1O` [Example 53, (2R,3S,4R,5R)-2-((R)-bicyclo[4.2.0]octa-1,3,5-trien-3-yl(hydroxy)methyl)-5-(4-(2-hydroxyethyl)-7H-pyrrolo[2,3-d]pyrimidin-7-yl)tetrahydrofuran-3,4-diol], the half-maximal inhibitory concentration (IC50) at PRMT5/MEP50 complex (read-out: Flash Plate IC50) worked out at 0.134 µM; in data set [1] (setting [4]), 5.24 µM.
As for `CNc1ncnc2c1ccn2[C@@H]1O[C@H]([C@H](O)c2ccc3c(c2)CC3)[C@@H](O)[C@H]1O` [Example 54, (2R,3S,4R,5R)-2-((R)-bicyclo[4.2.0]octa-1(6),2,4-trien-3-yl(hydroxy)methyl)-5-(4-(methylamino)-7H-pyrrolo[2,3-d]pyrimidin-7-yl)tetrahydrofuran-3,4-diol], the values for the half-inhibitory concentration (IC50) (on PRMT5/MEP50 complex (read-out: Flash Plate IC50); in data set [1] (setting [4])) were 0.0376 µM and 0.759 µM, respectively.
Taken in the same sequence, the figures for `O[C@@H]1[C@H](O)[C@@H]([C@H](O)c2ccc3c(c2)CC3)O[C@H]1n1ccc2c(Cl)ncnc21` [Example 56, (2R,3S,4R,5R)-2-((R)-bicyclo[4.2.0]octa-1(6),2,4-trien-3-yl(hydroxy)methyl)-5-(4-chloro-7H-pyrrolo[2,3-d]pyrimidin-7-yl)tetrahydrofuran-3,4-diol] were 0.0176 µM and 0.923 µM.
